In brackets after ≈: the same amount, converted by molar mass. Counter-ions that a name gives are not always drawn. Like-named read-outs stand apart in the source and are kept apart here.
Legend:
[1] = Blood drug level in rats model of deep vein thrombosis; type: in vivo, SD rats
deep vein thrombosis = assay: Rats model of deep vein thrombosis; type: in vivo, SD rats; settings: for antithrombotic efficacy, Form I and dabigatran etexilate compared: at the same dose, oral
Source text: Experimental animals: SD rats (body weight 220 to 250 g, sex: male)
The thrombus was removed and weighed.

[2] = Moisture adsorption content / hygroscopicity; type: physicochemical
[3] = Form III stability: mechanical milling and storage at 60° C./sealed condition; type: physicochemical
Solubility = type: physicochemical
pKa = type: physicochemical
[4] = DVS (Dynamic Vapor Sorption) water absorption; type: physicochemical
Partition coefficient = type: physicochemical
[5] = intravenous infusion of 0.1 mg/kg/h in rats

For `CC(C)C[C@@H](NCC(=O)O)C(=O)N1CCC[C@H]1C(=O)NCc1ccc(C(=N)N)cc1` [Compound V], the “blood drug levels of compound V compared with oral 5 mg/kg Form I” value [1, 5] was “comparable” and the “antithrombotic effect compared with oral 5 mg/kg Form I” value (deep vein thrombosis; [5]) was “comparable”.
With `CCCCCCOC(=O)N=C(N)c1ccc(NCc2nc3cc(C(=O)N(CCC(=O)OCC)c4ccccn4)ccc3n2C)cc1` [Dabigatran etexilate, reference compound] the “antithrombotic efficacy, Form I and dabigatran etexilate compared” value (deep vein thrombosis; rats) was “basically equivalent”.
For `CCCCCCOC(=O)NC(=N)c1ccc(CNC(=O)[C@@H]2CCCN2C(=O)[C@@H](CC(C)C)NCC(=O)OCC)cc1` [Form A of the monohydrochloride], the Moisture adsorption content [2] was 0.5 wt %.
For `CCCCCCOC(=O)NC(=N)c1ccc(CNC(=O)[C@@H]2CCCN2C(=O)[C@@H](CC(C)C)NCC(=O)OCC)cc1` [Form B of the monohydrochloride], the Hygroscopicity [2] was “(Hygroscopic)” and the Moisture adsorption content [2] was 3.0 wt %.
Work on `CCCCCCOC(=O)NC(=N)c1ccc(CNC(=O)[C@@H]2CCCN2C(=O)[C@@H](CC(C)C)NCC(=O)OCC)cc1` [Form III] yielded a purity after storage ([3]; 60° C./sealed condition for 7 days) of 89.35% and a purity before storage ([3]; before storage at 60° C./sealed condition) of 95.81%.
For `CCCCCCOC(=O)NC(=N)c1ccc(CNC(=O)[C@@H]2CCCN2C(=O)[C@@H](CC(C)C)NCC(=O)OCC)cc1` [Form I], the solubility (Solubility; BA, organic solvent or mixture, read-out: Solubility) was < 0.3 mg/mL, the solubility (Solubility; acetonitrile and dichloromethane) was 9.0, 10.0, 11.0, 12.0 and 13.0), readily soluble and the solubility (Solubility; buffer solutions with different pH values (1.2, 2.0, 3.0, 4.0, 5.0, 6.0, 7.0, 8.0, 9.0, 10.0, 11.0, 12.0 and 13.0)) was “Highly soluble in buffer solutions with different”. The solubility (Solubility; organic solvent or mixture, AC (Acetic acid), read-out: Solubility) was > 250 mg/mL, the solubility (Solubility; organic solvent or mixture, ACN (Acetonitrile), read-out: Solubility) was > 250 mg/mL and the solubility (Solubility; organic solvent or mixture, DMSO (Dimethyl sulfoxide), read-out: Solubility) was > 250 mg/mL. The solubility (Solubility; organic solvent or mixture, Diox (1,4-Dioxane), read-out: Solubility) was ~125 mg/mL (≈ 218 mM), the solubility (Solubility; organic solvent or mixture, EtOH (Ethanol), read-out: Solubility) was > 250 mg/mL and the solubility (Solubility; organic solvent or mixture, Hept (n-Heptane), read-out: Solubility) was < 0.3 mg/mL. It also gave a solubility (Solubility; organic solvent or mixture, IPA (Isopropyl alcohol), read-out: Solubility) of ~167 mg/mL (≈ 291 mM), a solubility (Solubility; organic solvent or mixture, IPAc (Isopropyl acetate), read-out: Solubility) of ~0.5 mg/mL (≈ 0.871 mM) and a solubility (Solubility; organic solvent or mixture, MEK (Methyl ethyl ketone), read-out: Solubility) of ~1.6 mg/mL (≈ 2.79 mM). For the same compound, the solubility (Solubility; organic solvent or mixture, MTBE (Methyl tert-butyl ether), read-out: Solubility) was < 0.3 mg/mL, the solubility (Solubility; organic solvent or mixture, NBA (n-Butanol), read-out: Solubility) was ~167 mg/mL (≈ 291 mM) and the solubility (Solubility; organic solvent or mixture, THF (Tetrahydrofuran), read-out: Solubility) was ~11.1 mg/mL (≈ 19.3 mM). For the same compound, the solubility (Solubility; organic solvent or mixture, Tol (Toluene), read-out: Solubility) was < 0.3 mg/mL, the solubility (Solubility; water, read-out: Solubility) was > 250 mg/mL and the “blood drug levels of compound V” value ([1]; oral administration of 2.5 mg/kg of Form I to rats) was 190.1 ng/mL. For the same compound, the “blood drug levels of compound V” value ([1]; oral administration of 5 mg/kg of Form I to rats) was 181.3 ng/mL, the “blood drug levels of compound V” value ([1]; oral administration of 10 mg/kg of Form I to rats) was 341.9 ng/mL and the “blood drug levels of compound V” value ([1]; oral administration of 20 mg/kg of Form I to rats) was 609.7 ng/mL. For the same compound, the pKa1 (pKa) was 4.94, the pKa2 (pKa) was 5.54 and the pKa3 (pKa) was 10.61. For the same compound, the “form of sample after DVS test” value ([4]; after DVS test) was “converted to amorphous form”, the “behaviour of sample at high humidity (DVS)” value ([4]; high humidity) was “undergoes deliquescence” and the Hygroscopicity [2] was “Hygroscopic”. For the same compound, the logP (Partition coefficient) was > 3.38, the “Log D7.4” value (Partition coefficient; pH 7.4) was 2.06 and the Thrombosis inhibition rate (deep vein thrombosis; 10 mg/kg, oral gavage, rats) was 70.0%. The “antithrombotic efficacy, Form I and dabigatran etexilate compared” value (deep vein thrombosis; rats) was “basically equivalent”.
With `CCCCCCOC(=O)NC(=N)c1ccc(CNC(=O)[C@@H]2CCCN2C(=O)[C@@H](CC(C)C)NCC(=O)OCC)cc1` [dihydrochloride] the aqueous solubility (Solubility; water) was “excellent aqueous solubility”.
With `CCCCCCOC(=O)NC(=N)c1ccc(CNC(=O)[C@@H]2CCCN2C(=O)[C@@H](CC(C)C)NCC(=O)OCC)cc1` [free alkali of the compound of formula II] the aqueous solubility (Solubility; water) was “insoluble in water”.
With `CCCCCCOC(=O)NC(=N)c1ccc(CNC(=O)[C@@H]2CCCN2C(=O)[C@@H](CC(C)C)NCC(=O)OCC)cc1` [monohydrochloride] the aqueous solubility (Solubility; water) was “excellent aqueous solubility”.

From patent publication US20260224526A1, “SALT OF DIPEPTIDE COMPOUND, PREPARATION METHOD THEREOF, AND USE THEREOF” (ZHEJIANG HUAHAI PHARMACEUTICAL CO., LTD., priority 2023, published 2026)
